Results from patent publication US20040247525A1, “Brain progenitor cell-based assay, and related methods and compositions” (priority 2003, published 2004).
Entries after “also recorded” stand apart in the source; their conditions may differ. Like-named read-outs stand apart in the source and are kept apart here. Values belong to the molecule of their own block, whether it stands above or below them.

Tests used:
[1] = tested on: BrdU-positive cells in the dentate gyrus; test: BrdU labeling of cell proliferation and neurogenesis in the dentate gyrus; assay type: in vivo, mouse; conditions: for BrdU-labeled cells in the SGZ (cell proliferation): 8-OH-DPAT chronic (28 days, 1 mg/kg/day mini pumps), WT (+/+) mice, vs sham, 1 mg/kg/day; for BrdU-positive cells surviving 28 days after BrdU injection: wild type mice, chronic treatment, sacrificed 28 days after BrdU
129/SvEv mice = test: Novelty-suppressed feeding test (NSF); assay type: in vivo, mouse
Protocol: Haloperidol, an antipsychotic that antagonizes D2 dopamine receptors, was used as a negative control because it is devoid of antidepressant activity in humans. NSF performance was assessed after either 5 or 28 days of oral drug administration.

[2] = tested on: 5-HT1A receptor knockout (KO) mice; test: Novelty-suppressed feeding test (NSF) in 5-HT1A knockout mice; assay type: in vivo, mouse
Protocol: The Novelty-suppressed feeding test was carried out during a 5-min period as previously described (Santarelli et al., 2001). Briefly, the testing apparatus consisted of a plastic box, 50×50×20 cm. The floor was covered with approximately 2 cm of wooden bedding. Twenty-four hours prior to behavioral testing, all food was removed from the home cage. At the time of testing, a single pellet of food (regular chow) was placed on a white paper platform positioned in the center of the box. An animal was placed in a corner of the maze and a stopwatch was immediately started. The measure of interest (chewing) was scored when the mouse was sitting on its haunches and biting with the use of forepaws. Immediately after this test, mice were transferred to their home cage and the amount of food consumed in 5 min was measured (home cage food consumption). In knockout experiments, mice were genotyped after behavioral testing to remove the possibility of investigator bias. Mice were always tested during the light period.
Among the 14 known 5-HT receptor subtypes, the 5-HT1A receptor has been most consistently implicated in the modulation of mood and anxiety-related behaviors (Gross et al., 2000; Sargent et al., 2000). To determine whether this receptor is required to mediate the effects of serotonin- and noradrenaline-enhancing ADs, we compared the effects of these drugs in wild type (WT) mice and in mice lacking the 5-HT1A receptor (5-HT1A receptor knockout (KO) mice). WT and KO mice were treated with fluoxetine, imipramine, desipramine, or vehicle for a period of 28 days before being tested in the NSF paradigm.

[3] = tested on: BrdU-positive cells in the dentate gyrus of 5-HT1A receptor KO mice; test: BrdU labeling of cell proliferation in the dentate gyrus of 5-HT1A knockout mice; conditions: for BrdU-labeled cells in the SGZ (cell proliferation): 8-OH-DPAT chronic (28 days, 1 mg/kg/day mini pumps), vs sham, 1 mg/kg/day; for BrdU-positive cells surviving 28 days after BrdU injection: 5-HT1A KO mice, chronic treatment, sacrificed 28 days after BrdU
Protocol: Knockout and wild-type 129/SvEv age-matched adult male mice (12-20 weeks) derived from heterozygote crossings (Phillips et al., 1999) were used in all experiments that included 5-HT1A knockout mice. […] Mice were housed 4-5 per cage in a 12-h (06:00-18:00) light-dark colony room at 22° C. with freely available food and water.
To assess the effect of antidepressant or X-irradiation treatments on the number of BrdU-positive cells, mice were administered BrdU (4×75 mg/kg i.p., dissolved in saline, every 2 hr; Roche Diagnostic, Indianapolis, Ind.) and sacrificed 24 hr after the last BrdU injection (FIG. 2A, 3B, 5C-D). To determine cell survival and phenotype after the various antidepressant treatments, fluoxetine, imipramine and vehicle-treated mice were allowed to survive for 28 days after the last BrdU injection (FIG. 2C-D, 3C). After deep anesthesia with a mixture of ketamine/xylazine (100 mg/kg and 7 mg/kg respectively),, mice were transcardially perfused (cold saline for 2 min, followed by 4% cold paraformaldehyde/0.1 M phosphate buffer for 5 min) and brains were collected for immunohistochemistry. All brains were post-fixed overnight in 4% paraformaldehyde at 4° C., then cryoprotected in 30% sucrose and stored at 4° C. Serial sections of the brains were cut (35 μm sections) through the entire hippocampus (plates 41-61; Franklin and Paxinos, 1997) on a cryostat and stored in PBS with 0.1% NaN3. For DAB staining, sections were slide-mounted and boiled in citric acid, pH 6.0, for 5 min, rinsed with PBS, and treated with 0.01% trypsin in Tris/CaC12 for 10 min. Brain sections were incubated for 30 min with 2N HCl and blocked with 5% NGS (Jackson ImmunoResearch, West Grove, Pa.). Sections were then incubated over night at room temperature with anti-mouse BrdU (1:100; Becton-Dickinson). After washing with PBS, sections were incubated for 1 hr with secondary antibody (1:200 biotinylated goat anti-mouse; Sigma-Aldrich, St. Louis, Mo.) followed by amplification with an avidin-biotin complex (Vector Laboratories). The staining was visualized with DAB (Sigma-Aldrich, St. Louis, Mo.). For fluorescent double-labeling, the DNA-denaturation procedure consisted of the following steps: 2 hr incubation in 50% formamide-2×SSC at 65° C., 5 min rinse in 2×SSC, 30 min incubation in 2N HCl at 37° C., and 10 min rinse in 0.1 M boric acid, pH 8.5. Sections were then incubated in TBS-0.1% Triton X-100 (Tx)-5% normal donkey serum (NDS) for 30 min, followed by anti-rat BrdU primary antibody (1:100; Accurate Westbury, N.Y. or Serotec, Oxford, UK) in TBS/NDS/Tx for 24 hrs at 4° C. in combination with either a mouse monoclonal antibody to NeuN (1:500; Chemicon, Temecula, Calif.) or a rabbit polyclonal antibody to GFAP (1:800; DAKO, Carpinteria, Calif.). The fluorescent secondary antibodies used were biotin-conjugated donkey anti-rat (1:200) plus streptavidin Cy2 (1:200), donkey anti-mouse. Cy3 (1:500), or donkey anti-rabbit Cy3 (1:500) (Jackson ImmunoResearch, West Grove, Pa.). Fluorescent images were taken with a Bio-Rad MRC 1000 confocal laser scanning system coupled to a Zeiss Axiovert 100 inverted microscope. For each image acquisition, a Kalman average of five frames was used. For quantification of BrdU/NeuN or BrdU/GFAP double-labeled cells, at least 50 BrdU-positive cells per animal were analyzed using Z-plane sectioning (1 μm steps).
In this set of experiments, wild type and 5-HT1A receptor KO mice were injected with BrdU following 27 days of treatment with fluoxetine, imipramine, or vehicle. To assess the effect of AD treatment on cell proliferation, one group of mice was sacrificed 24 hours after BrdU injection and sections containing the dentate gyrus were analyzed by immunohistochemistry.

[4] = mouse, in vivo, po
Protocol: Fluoxetine (Eli Lilly, Indianapolis, Ind.), Imipramine (Sigma-Aldrich, St. Louis, Mo.), Desipramine (Sigma-Aldrich, St. Louis, Mo.) and Haloperidol (Sigma-Aldrich, St. Louis, Mo.) were dissolved in tap water at a concentration of 80, 160, 160, and 8 mg/L, respectively. These concentration were established based on the average drinking amount and average weight of the mice used in the study to achieve a final dose of 10 (fluoxetine), 20 (imipramine and desipramine) and 1 (haloperidol) mg/kg/day. […] Vehicle animals received tap water. 8-hydroxy-2-(di-n-propylamino) tetralin (8-OH-DPAT, Sigma-Aldrich, St. Louis, Mo.) was dissolved in sterile saline (0.9% NaCl) at a concentration of 4.5 mg/ml, and delivered through Alzet osmotic mini-pumps (model 2004, Alzet, Cupertino, Calif.) implanted subcutaneously 28 days prior to behavioral testing. The final average dose delivered was 1 mg/kg/day. Sham mice were implanted with mini-pumps containing sterile saline.

BALB/c mice = test: Chronic unpredictable stress paradigm (CUS); assay type: in vivo, mouse; conditions: for state of the coat (fur) in CUS: fluoxetine 10 mg/kg/day i.p. from week 3, end of fifth week; for weight loss induced by stress in CUS / grooming latency in CUS: fluoxetine 10 mg/kg/day i.p.; for weight loss induced by stress in CUS: data not shown; for grooming latency in CUS: sixth week, after sucrose solution
Protocol: The stress regimen used is a variant of the chronic mild stress procedures described by Willner et al. (Willner et al., 1992). Mice were subjected to various and repeated unpredictable stressors for a period of five weeks (Griebel et al., 2002). The different stressors used were: alterations of the bedding (repeated sawdust changing, removal of sawdust, damp sawdust, substitution of sawdust with 37° C. water); cage tilting (45°); predator sounds (15 min.); cage shift (mice were positioned in the empty cage of another male); light to dark or dark to light shifts (four light/dark successions of 30 min every 24 hours); reversal of the light/dark cycle. The fluoxetine treatment (10 mg/kg/day, i.p.) started at the beginning of the third week. The state of the coat was assessed at the end of the stress regimen (end of fifth week). The total score resulted from the sum of the score of seven different body parts: head, neck, dorsal coat, ventral coat, tail, forepaws and the hindpaws. A score of 0 was given for a well-groomed coat and 1 for a spoiled coat (see Griebel, 2002). The grooming latency was assessed at the end of the sixth week. This test consisted in squirting 200 μl of a 10% sucrose solution on the mouse's snout. The latency to start grooming was then recorded.
The CUS protocol consists of the sequential application of a number of stressors, presented in a varied and unpredictable manner during 5 weeks. The continued application of these stressors produces a deterioration in the state of the coat, an impaired grooming response, and weight loss (Griebel et al., 2002; Willner et al., 1992). ADs such as fluoxetine can reverse these stress-induced effects after chronic, but not acute, administration (Griebel et al., 2002; Willner et al., 1992).
Sham and irradiated mice were subjected to five weeks of CUS, beginning two weeks after the final X-ray dose, and half of the animals in each group were administered fluoxetine (10 mg/kg/day, i.p.) from weeks 3-6. The state of each animal's fur was assessed at the end of the stress period, and assigned a score based on observations from several body regions (see methods). Fluoxetine treatment was continued for one more week, after which we measured the latency to begin grooming following application of a sucrose solution to the head of each animal.

[5] = tested on: dentate gyrus (DG) of the rat hippocampus; conditions: Malberg et al., 2000; cited from earlier work
[6] = 28 days via drinking water, fluoxetine 10, imipramine 20, desipramine 20, haloperidol 1 mg/kg/day, wild-type mice, vs vehicle
[7] = 28 days via drinking water, 5-HT1A knockout (−/−) mice, vs vehicle
[8] = 5-day treatment via drinking water, vs vehicle
[9] = 28 days, X-irradiated mice (3 x 5 Gy to hippocampus), vs vehicle
[10] = 28 days, sham (non-irradiated) mice, vs vehicle

SMILES: CCCN(CCC)C1CCc2cccc(O)c2C1 (stereo not drawn) [8-OH-DPAT]
- BrdU-labeled cells in the SGZ (cell proliferation) [1]: caused an increase in cell proliferation
- BrdU-labeled cells in the SGZ (cell proliferation) ([1]; listed as DPAT): DPAT-induced increases in BrdU-labeled cells
- latency to feed in NSF (129/SvEv mice; 28 days, subcutaneous osmotic mini pumps, 1 mg/kg/day, wild type (+/+), vs sham, 1 mg/kg/day): significantly decreased the latency to feed; also recorded: significant decrease in the latency to feed
- latency to feed in NSF ([2]; 28 days, subcutaneous osmotic mini pumps, 1 mg/kg/day, 5-HT1A knockout (−/−), vs sham, 1 mg/kg/day): ineffective
- BrdU-labeled cells in the SGZ (cell proliferation) ([3]; 5-HT1A KO (−/−) mice): not observed
- BrdU-labeled cells in the SGZ (cell proliferation) ([3]; 5-HT1A KO (−/−) mice, listed as DPAT): not −/− mice

SMILES: CNCCCN1c2ccccc2CCc2ccccc21 [desipramine, Desipramine]
- latency to feed in NSF (129/SvEv mice; [6]): significant decreases in the latency to feed; also recorded: significantly decreased the latency to feed
- latency to feed in NSF [2, 7]: still responsive; also recorded: effective
- time by which steady serum levels had been achieved ([4]; 129/SvEv): ≤ 5 days

SMILES: CNCCC(Oc1ccc(C(F)(F)F)cc1)c1ccccc1 (stereo not drawn) [fluoxetine, Fluoxetine]
- cell proliferation (BrdU) ([1]; chronic fluoxetine, X-irradiated animals): no effect
- cell proliferation (BrdU) in the SGZ ([1]; chronic fluoxetine, non-irradiated mice): increased cell proliferation
- cell proliferation (BrdU) in the SVZ ([1]; chronic fluoxetine, subventricular zone): no effect
- number of BrdU-positive cells in the DG ([1]; fluoxetine 5 days, sacrificed 24 hours after BrdU, vs vehicle): No significant effect
- increase in BrdU-labeled cells in the dentate gyrus ([1]; wild type (+/+) mice, 27 days (4 weeks) treatment, sacrificed 24 hours after BrdU, vs vehicle): two-fold increase; also recorded: effective only in +/+ mice
- BrdU-positive cells surviving 28 days after BrdU injection ([1]; vs vehicle): had an effect in WT
- state of the coat (fur) in CUS (BALB/c mice; X-irradiated mice): absent; also recorded: Irradiation prevented the improvement of the state of the coat
- state of the coat (fur) in CUS (BALB/c mice; sham mice): significantly improved the state of the fur; also recorded: significant differences between the fluoxetine-treated sham group and all the others
- weight loss induced by stress in CUS (BALB/c mice; X-irradiated mice): irradiation blocked this effect
- grooming latency in CUS (BALB/c mice; X-irradiated mice): X-irradiation blocked this effect
- weight loss induced by stress in CUS (BALB/c mice; sham mice): trend to reverse the weight loss
- grooming latency in CUS (BALB/c mice; sham mice): decreased; also recorded: decrease in the latency to groom
- latency to feed in NSF (129/SvEv mice; [8]): no effect
- latency to feed in NSF (129/SvEv mice; [6]): significant decreases in the latency to feed
- latency to feed in NSF (129/SvEv mice; 28 days via drinking water, fluoxetine 10, imipramine 20, desipramine 20, haloperidol 1 mg/kg/day, wild-type mice, vs vehicle, listed as Fluoxetine): significantly decreased the latency to feed
- latency to feed in NSF (129/SvEv mice; [9]): no such anxiolytic-like effect
- latency to feed in NSF (129/SvEv mice; [10]): significant reduction in the latency to feed
- latency to feed in NSF [2, 7]: insensitive
- latency to feed in NSF ([2]; 28 days via drinking water, 5-HT1A knockout (−/−) mice, vs vehicle, listed as Fluoxetine): only imipramine and desipramine were effective
- time by which steady serum levels had been achieved ([4]; 129/SvEv): ≤ 5 days
- increase in BrdU-labeled cells in the dentate gyrus ([3]; 5-HT1A KO (−/−) mice, 27 days (4 weeks) treatment, sacrificed 24 hours after BrdU, vs vehicle): no effect; also recorded: effective only in +/+ mice
- BrdU-positive cells surviving 28 days after BrdU injection ([3]; vs vehicle): not in KO
- neurogenesis in the dentate gyrus [5]: increase neurogenesis

SMILES: O=C(CCCN1CCC(O)(c2ccc(Cl)cc2)CC1)c1ccc(F)cc1 [haloperidol, Haloperidol]
- latency to feed in NSF (129/SvEv mice; 28 days via drinking water, fluoxetine 10, imipramine 20, desipramine 20, haloperidol 1 mg/kg/day, wild-type mice, vs vehicle, listed as Haloperidol): ineffective

SMILES: CN(C)CCCN1c2ccccc2CCc2ccccc21 [imipramine, Imipramine]
- BrdU-positive cells surviving 28 days after BrdU injection ([1]; vs vehicle): effective in both genotypes
- latency to feed in NSF (129/SvEv mice; [8]): no effect
- latency to feed in NSF (129/SvEv mice; [6]): significant decreases in the latency to feed; also recorded: significantly decreased the latency to feed
- latency to feed in NSF (129/SvEv mice; [9]): no such anxiolytic-like effect
- latency to feed in NSF (129/SvEv mice; [10]): significant reduction in the latency to feed
- latency to feed in NSF [2, 7]: still responsive; also recorded: effective
- time by which steady serum levels had been achieved ([4]; 129/SvEv): ≤ 5 days
- BrdU-positive cells surviving 28 days after BrdU injection ([3]; vs vehicle): effective in both genotypes

- time by which steady serum levels had been achieved [4]: ≤ 5 days
SMILES: NCCC(Oc1ccc(C(F)(F)F)cc1)c1ccccc1 (stereo not drawn) [nor- fluoxetine]
